According to patent US8404643B2, “Metastin derivatives and use thereof” (priority 2005, dated 2013):
Numbered stars: 1 amine (or outer) side, 2 acyl side, 3 side chain; on linkers, the order of the positions; unused ones are H or OH. Square brackets hold non-standard residues; d marks the D form. Peptide text beside a SMILES is read from it. * marks the point of attachment. pY = N[C@@H](Cc1ccc(OP(=O)(O)O)cc1)C(=O)O; Nip(3R) = O=C([C@@H]1CCCN([*:1])C1)[*:2]; Phe(4-Cl) = N[C@@H](Cc1ccc(Cl)cc1)C(=O)O; Phe(3-F) = N[C@@H](Cc1cccc(F)c1)C(=O)O; Phe(2-F) = N[C@@H](Cc1ccccc1F)C(=O)O; Arg(Me) = CNC(=N)NCCC[C@H](N)C(=O)O; Hyp = O=C(O)[C@@H]1C[C@@H](O)CN1; Aib = CC(C)(N)C(=O)O; Bn = c1ccc(C*)cc1; azaGly = NNC(=O)O

Molecular target: T1, hOT7T175 (Homo sapiens, UniProt Q969F8)
T1 construct: expressed in transfected cells
T1 sequence (Q969F8 whole entry L364H): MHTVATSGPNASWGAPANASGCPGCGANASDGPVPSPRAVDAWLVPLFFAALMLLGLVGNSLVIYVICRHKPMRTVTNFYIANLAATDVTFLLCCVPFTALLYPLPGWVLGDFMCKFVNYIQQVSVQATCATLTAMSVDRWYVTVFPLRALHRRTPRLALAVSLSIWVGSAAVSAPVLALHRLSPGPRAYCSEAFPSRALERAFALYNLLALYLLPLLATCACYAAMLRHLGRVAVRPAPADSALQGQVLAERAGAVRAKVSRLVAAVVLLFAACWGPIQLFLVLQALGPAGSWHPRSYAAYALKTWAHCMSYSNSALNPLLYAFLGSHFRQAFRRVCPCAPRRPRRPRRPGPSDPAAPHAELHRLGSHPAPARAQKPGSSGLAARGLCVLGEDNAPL
Experiment: Assay for intracellular Ca ion level-increasing activity using FLIPR
Format: cell-based
Settings: hOT7T175/CHO cells, relative to Metastin (1-54)
In short: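 CHO/dhfr− cells stably transfected with hOT7T175, selected for high metastin response, loaded with Fluo3-AM for 1 h at 37 °C in HANKS/HBSS (pH 7.4) with probenecid. Peptides were diluted from 1×10^−3 M DMSO stock into HANKS/HBSS with 2.5 mM probenecid, 0.2% BSA, 0.1% CHAPS; intracellular Ca rise read by FLIPR.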

Point of comparison: `CNC(=N)NCCC[C@H](NC(=O)[C@H](CC(C)C)NC(=O)NNC(=O)[C@H](Cc1cccc(F)c1)NC(=O)[C@@H](NC(=O)[C@H](CC(N)=O)NC(=O)[C@@H]1C[C@@H](O)CN1C(=O)[C@@H](Cc1ccc(O)cc1)NC(C)=O)[C@@H](C)O)C(=O)N[C@@H](Cc1c[nH]c2ccccc12)C(N)=O` [Compound No. 765, Ac-D-Tyr-Hyp-Asn-Thr-Phe(3F)-AzaGly-Leu-Arg(Me)-Trp-NH2] (Ac-[dY][Hyp]NT[Phe(3-F)][azaGly]L[Arg(Me)]W-NH2), “Specific Activity: intracellular Ca ion level-increasing activity [specific activity to Metastin (1-54)]” value 2.6. Against it:
- CNC(=N)NCCC[C@H](NC(=O)[C@H](CC(C)C)NC(=O)NNC(=O)[C@H](Cc1ccc(Cl)cc1)NC(=O)[C@@H](NC(=O)[C@H](CC(N)=O)NC(=O)C(C)(C)NC(=O)[C@@H](Cc1ccc(O)cc1)NC(C)=O)[C@@H](C)O)C(=O)N[C@@H](Cc1c[nH]c2ccccc12)C(N)=O [Compound No. 770, Ac-D-Tyr-Aib-Asn-Thr-Phe(4Cl)-AzaGly-Leu-Arg(Me)-Trp-NH2] (Ac-[dY][Aib]NT[Phe(4-Cl)][azaGly]L[Arg(Me)]W-NH2) — the same, 2.6
- CNC(=N)NCCC[C@H](NC(=O)[C@H](CC(C)C)NC(=O)NNC(=O)[C@H](Cc1ccccc1)NC(=O)[C@@H](NC(=O)[C@H](CC(N)=O)NC(=O)[C@@H]1CCCN(C(=O)[C@@H](Cc2ccc(O)cc2)NC(C)=O)C1)[C@@H](C)O)C(=O)N[C@@H](Cc1c[nH]c2ccccc12)C(N)=O [Compound No. 722, Ac-D-Tyr-Pic(3)-Asn-Thr-Phe-AzaGly-Leu-Arg(Me)-Trp-NH2] (Ac-[dY][Nip(3R)]NTF[azaGly]L[Arg(Me)]W-NH2) — lower, 2.2
- CNC(=N)NCCC[C@H](NC(=O)[C@H](CC(C)C)NC(=O)NNC(=O)[C@H](Cc1ccccc1F)NC(=O)[C@@H](NC(=O)[C@H](CC(N)=O)NC(=O)[C@H](Cc1c[nH]c2ccccc12)NC(=O)[C@@H](Cc1ccc(O)cc1)NC(C)=O)[C@@H](C)O)C(=O)N[C@@H](Cc1c[nH]c2ccccc12)C(N)=O [Compound No. 764, Ac-D-Tyr-Trp-Asn-Thr-Phe(2F)-AzaGly-Leu-Arg(Me)-Trp-NH2] (Ac-[dY]WNT[Phe(2-F)][azaGly]L[Arg(Me)]W-NH2) — lower, 1.5
- CNC(=N)NCCC[C@H](NC(=O)[C@H](CC(C)C)NC(=O)NNC(=O)[C@H](Cc1ccccc1)NC(=O)[C@@H](NC(=O)[C@H](CC(N)=O)NC(=O)C(C)(C)NC(=O)[C@@H](Cc1ccc(O)cc1)NC(C)=O)[C@@H](C)O)C(=O)N[C@@H](Cc1c[nH]c2ccccc12)C(N)=O [Compound No. 727, Ac-D-Tyr-Aib-Asn-Thr-Phe-AzaGly-Leu-Arg(Me)-Trp-NH2] (Ac-[dY][Aib]NTF[azaGly]L[Arg(Me)]W-NH2) — lower, 1.5
- CNC(=N)NCCC[C@H](NC(=O)[C@H](CC(C)C)NC(=O)NNC(=O)[C@@H](Cc1ccccc1)NC(=O)[C@@H](NC(=O)[C@H](CC(N)=O)NC(=O)[C@@H]1C[C@@H](O)CN1C(=O)[C@@H](Cc1ccc(O)cc1)NC(C)=O)[C@@H](C)O)C(=O)N[C@@H](Cc1c[nH]c2ccccc12)C(N)=O [Compound No. 794, Ac-D-Tyr-Hyp-Asn-Thr-D-Phe-AzaGly-Leu-Arg(Me)-Trp-NH2] (Ac-[dY][Hyp]NT[dF][azaGly]L[Arg(Me)]W-NH2) — lower, 2.3
- Ac-D-Tyr-Tyr(PO3H2)-Asn-Thr-Phe-AzaGly-Leu-Arg(Me)-Trp-NH2 (Ac-[dY][pY]NTF[azaGly]L[Arg(Me)]W-NH2; SMILES CNC(=N)NCCC[C@H](NC(=O)[C@H](CC(C)C)NC(=O)NNC(=O)[C@H](Cc1ccccc1)NC(=O)[C@@H](NC(=O)[C@H](CC(N)=O)NC(=O)[C@H](Cc1ccc(OP(=O)(O)O)cc1)NC(=O)[C@@H](Cc1ccc(O)cc1)NC(C)=O)[C@@H](C)O)C(=O)N[C@@H](Cc1c[nH]c2ccccc12)C(N)=O) [Compound No. 775] — lower, 1.3
- CNC(=N)NCCC[C@H](NC(=O)[C@H](CC(C)C)NC(=O)NNC(=O)[C@H](Cc1ccccc1)NC(=O)[C@@H](NC(=O)[C@H](CC(N)=O)NC(=O)[C@H](CO)NC(=O)[C@@H](Cc1ccc(O)cc1)NC(C)=O)[C@@H](C)O)C(=O)N[C@@H](Cc1c[nH]c2ccccc12)C(N)=O [Compound No. 744, Ac-D-Tyr-Ser-Asn-Thr-Phe-AzaGly-Leu-Arg(Me)-Trp-NH2] (Ac-[dY]SNTF[azaGly]L[Arg(Me)]W-NH2) — lower, 2.4
- CNC(=N)NCCC[C@H](NC(=O)[C@H](CC(C)C)NC(=O)NNC(=O)[C@H](Cc1ccccc1)NC(=O)[C@@H](NC(=O)[C@H](CC(N)=O)NC(=O)[C@@H]1C[C@@H](OCc2ccccc2)CN1C(=O)[C@@H](Cc1ccc(O)cc1)NC(C)=O)[C@@H](C)O)C(=O)N[C@@H](Cc1c[nH]c2ccccc12)C(N)=O [Compound No. 781, Ac-D-Tyr-Hyp(Bzl)-Asn-Thr-Phe-AzaGly-Leu-Arg(Me)-Trp-NH2] (Ac-[dY][Hyp](Bn)NTF[azaGly]L[Arg(Me)]W-NH2) — lower, 1.0
- CNC(=N)NCCC[C@H](NC(=O)[C@H](CC(C)C)NC(=O)NNC(=O)[C@H](Cc1ccccc1F)NC(=O)[C@@H](NC(=O)[C@H](CC(N)=O)NC(=O)[C@@H]1C[C@@H](O)CN1C(=O)[C@@H](Cc1ccc(O)cc1)NC(C)=O)[C@@H](C)O)C(=O)N[C@@H](Cc1c[nH]c2ccccc12)C(N)=O [Compound No. 763, Ac-D-Tyr-Hyp-Asn-Thr-Phe(2F)-AzaGly-Leu-Arg(Me)-Trp-NH2] (Ac-[dY][Hyp]NT[Phe(2-F)][azaGly]L[Arg(Me)]W-NH2) — higher, 6.4
- CNC(=N)NCCC[C@H](NC(=O)[C@H](CC(C)C)NC(=O)NNC(=O)[C@H](Cc1ccccc1)NC(=O)[C@@H](NC(=O)[C@H](CC(N)=O)NC(=O)[C@@H](Cc1ccc(O)cc1)NC(C)=O)[C@@H](C)O)C(=O)N[C@@H](Cc1c[nH]c2ccccc12)C(N)=O [Compound No. 777, Ac-D-Tyr-Asn-Thr-Phe-AzaGly-Leu-Arg(Me)-Trp-NH2] (Ac-[dY]NTF[azaGly]L[Arg(Me)]W-NH2) — lower, 1.8
- CNC(=N)NCCC[C@H](NC(=O)[C@H](CC(C)C)NC(=O)NNC(=O)[C@H](Cc1ccc(Cl)cc1)NC(=O)[C@@H](NC(=O)[C@H](CC(N)=O)NC(=O)[C@@H](Cc1c[nH]c2ccccc12)NC(=O)[C@@H](Cc1ccc(O)cc1)NC(C)=O)[C@@H](C)O)C(=O)N[C@@H](Cc1c[nH]c2ccccc12)C(N)=O [Compound No. 748, Ac-D-Tyr-D-Trp-Asn-Thr-Phe(4Cl)-AzaGly-Leu-Arg(Me)-Trp-NH2] (Ac-[dY][dW]NT[Phe(4-Cl)][azaGly]L[Arg(Me)]W-NH2) — lower, 0.4
- CNC(=N)NCCC[C@H](NC(=O)[C@H](CC(C)C)NC(=O)NNC(=O)[C@H](Cc1ccc(Cl)cc1)NC(=O)[C@@H](NC(=O)[C@H](CC(N)=O)NC(=O)[C@H](Cc1c[nH]c2ccccc12)NC(=O)[C@@H](Cc1ccc(O)cc1)NC(C)=O)[C@@H](C)O)C(=O)N[C@@H](Cc1c[nH]c2ccccc12)C(N)=O [Compound No. 768, Ac-D-Tyr-Trp-Asn-Thr-Phe(4Cl)-AzaGly-Leu-Arg(Me)-Trp-NH2] (Ac-[dY]WNT[Phe(4-Cl)][azaGly]L[Arg(Me)]W-NH2) — lower, 0.6
